This is an account of results in PMC6471485, “Selective Inhibitors of a Human Prolyl Hydroxylase (OGFOD1) Involved in Ribosomal Decoding” (Chemistry (Weinheim an Der Bergstrasse, Germany), 2019).

Series [1] deals with T1, KDM4A (Homo sapiens, UniProt O75164).
T1 sequence (O75164 1-1064): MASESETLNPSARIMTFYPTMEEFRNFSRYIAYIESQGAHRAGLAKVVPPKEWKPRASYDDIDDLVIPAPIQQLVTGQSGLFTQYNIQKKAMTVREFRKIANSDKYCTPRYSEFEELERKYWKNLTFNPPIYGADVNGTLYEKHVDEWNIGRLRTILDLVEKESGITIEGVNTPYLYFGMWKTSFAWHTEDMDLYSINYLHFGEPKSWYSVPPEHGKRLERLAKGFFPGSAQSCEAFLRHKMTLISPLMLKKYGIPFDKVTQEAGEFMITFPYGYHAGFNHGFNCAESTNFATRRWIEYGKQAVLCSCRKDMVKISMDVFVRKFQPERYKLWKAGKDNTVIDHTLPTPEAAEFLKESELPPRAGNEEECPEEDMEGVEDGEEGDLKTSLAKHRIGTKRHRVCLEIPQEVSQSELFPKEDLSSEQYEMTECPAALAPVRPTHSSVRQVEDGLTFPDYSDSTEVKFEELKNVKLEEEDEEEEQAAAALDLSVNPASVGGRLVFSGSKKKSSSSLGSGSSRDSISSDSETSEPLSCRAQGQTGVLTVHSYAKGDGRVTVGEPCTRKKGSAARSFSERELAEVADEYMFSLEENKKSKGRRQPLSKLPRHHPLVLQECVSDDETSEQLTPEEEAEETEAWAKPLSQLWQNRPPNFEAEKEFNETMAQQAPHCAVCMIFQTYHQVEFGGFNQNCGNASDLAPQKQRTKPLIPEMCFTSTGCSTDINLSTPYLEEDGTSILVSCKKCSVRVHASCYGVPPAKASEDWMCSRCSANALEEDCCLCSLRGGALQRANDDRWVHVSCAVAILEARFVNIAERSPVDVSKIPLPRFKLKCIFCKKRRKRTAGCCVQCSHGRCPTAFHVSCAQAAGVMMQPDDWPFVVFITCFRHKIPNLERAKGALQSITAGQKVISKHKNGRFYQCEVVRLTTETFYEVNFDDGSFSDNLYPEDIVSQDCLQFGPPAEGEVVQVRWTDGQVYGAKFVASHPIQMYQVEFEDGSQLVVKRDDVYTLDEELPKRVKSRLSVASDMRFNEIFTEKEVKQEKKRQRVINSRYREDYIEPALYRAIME
The experiment in a line: KDM4A formaldehyde dehydrogenase (FDH) assay. The class given is biochemical. As for the experimental part:
reactions were quenched after 4 min. KDM4A inhibition was tested as described previously using a formaldehyde dehydrogenase (FDH) assay.[9] JARID1B and JARID1C inhibition was tested as described previously using reported AlphaScreen-based assays.[10] MINA531-464 and NO66116-641 were cloned into pFB-LIC-Bse, and the N-terminal His-tagged proteins were produced in Sf9 insect cells. The MINA53 peptide substrate Rpl27a […]
(Gly31 – Pro49 […]) and the NO66 peptide substrate Rpl8
(Asn205 – Thr224 […]) were synthesized by Peptide Protein
Research Ltd (Fareham, Hampshire, UK) to >95% purity. IC50 determinations were performed in 384-well polypropylene plates (Greiner Bio One, Cat Number 781096), and compound dispenses were performed using an ECHO 550 acoustic dispenser (Labcyte, Sunnyvale, CA).
NO66 (diluted to 375 nM in 50 mM MES pH 7.0, 150 mM NaCl) and MINA53 (diluted to 187.5 nM in 50 mM HEPES pH 7.5, 50 mM NaCl) were dispensed (40 µL) into 384-well compound plates using a multidrop combi reagent dispenser (Thermo Scientific, Code 5840300) with a small tube plastic tip dispensing cassette (Thermo Scientific, Code 24073290).
NO66 and MINA53 were pre-incubated with compound for 15 minutes, and the enzyme reaction initiated by dispensing 10 µL of substrate solution [250 µM (NH4)2Fe(SO4)2, 500 µM sodium ascorbate, 25 µM 2OG, 25 µM peptide] in optimized enzyme buffer. […]

The target in series [2] is T2, PHD2181-426 (Homo sapiens, UniProt Q9GZT9).
T2 construct: 181-426 (1 µM) was
The experiment in a line: wLOGSY NMR binding experiment with PHD2. The settings on record: 400 µM inhibitor, 50 µM PHD2.

A short description of series [3]: S9 liver microsome stability assay (Cyprotex). The class given is in vitro ADME. Particulars: for microsomal CLint: S9 liver microsome assay, read-out: predicted intrinsic clearance; for clearance classification: low clearance: < 8.6 µL/min/mg protein. The procedure:
supplemented with 80 µM Zn(II), 70 µM of inhibitor, all in 50 mM Tris-d11, pH 7.5, 10 % D2O, […]
Cell Culture and Immunoblotting
HeLa cells were cultured in DMEM media supplemented with 10 % fetal bovine serum, 4 mM L-glutamine, 100 U/mL penicillin, and 100 µg/mL streptomycin. Cells were treated with the indicated compounds, prepared in 1% DMSO, for 5 h. Following a PBS buffer rinse, cells were lysed in urea/SDS buffer supplemented with 1 mM dithiothreitol. Cell extracts were analyzed by SDS-PAGE, electroblotted onto PVDF membranes (Millipore) and probed with anti-HIF-1α antibody (clone 54, BD Transduction Laboratories) at 1:1000 dilution for 1 h at room temperature. The HRP-conjugated secondary antibody was then applied at room temperature for 1 h. Target proteins were detected with SuperSignal Chemiluminescent […]
ADMET in vitro Predictors
S9 liver microsome stability assays and MDCK-MDR1 efflux assays were carried out for CCT3 and CCT4 by Cyprotex (UK). Additional details are provided later in the Supporting […]
The solubility and metabolic stability of CCT3 and CCT4 was preliminarily evaluated using a S9 liver microsome assay (Cyprotex, UK). According to the assay, CCT3 and CCT4 had […]
respectively, and are thus classified as having low clearance (< 8.6 µL/min/mg protein).
The cell permeability of CCT3 and CCT4 were evaluated using an MDR1-MDCK in vitro […]
able to penetrate the blood-brain barrier. The permeability coefficients were determined to be

“Also recorded” adds a separate entry of the source.

T2 sequence (Q9GZT9 181-426 limits assumed): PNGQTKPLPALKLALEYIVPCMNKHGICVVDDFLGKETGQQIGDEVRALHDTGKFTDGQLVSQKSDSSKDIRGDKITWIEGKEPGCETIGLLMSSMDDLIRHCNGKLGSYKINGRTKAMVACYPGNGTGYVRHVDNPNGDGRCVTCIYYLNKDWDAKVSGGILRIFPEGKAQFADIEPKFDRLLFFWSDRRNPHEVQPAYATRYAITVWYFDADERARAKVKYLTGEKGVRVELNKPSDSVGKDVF

As for `Cn1c(O)c(C(=O)CCc2cccs2)c(=O)n(C)c1=O` [compound 42], the IC50 in series [1] is above 100 µM. Besides, the “binding to PHD2 by wLOGSY NMR, in words” value in series [2] (listed as CCT4) is “weaker; also recorded: only weak binding to PHD2”. In addition, the microsomal CLint in series [3] is 7.72 µL/min/mg. The clearance classification entry in series [3] (listed as CCT4) is listed as “only low levels of clearance”.
`Cn1c(O)c(C(=O)CCc2ccccc2)c(=O)n(C)c1=O` [compound 26] came in with an IC50 in series [1] above 100 µM. Also, in series [2] (listed as CCT3), the “binding to PHD2 by wLOGSY NMR, in words” value is “weaker; also recorded: only weak binding to PHD2”. Also, in series [3], the microsomal CLint was 4.76 µL/min/mg. Also, in series [3] (listed as CCT3), the clearance classification entry is “only low levels of clearance”.

As usually defined, the IC50 is the concentration at which inhibition is half-maximal. Low readings indicate greater potency, high ones weaker potency.
